Laboratory results reported in publication PMC10369496, “Cu(II) and Zn(II) Complexes of New 8-Hydroxyquinoline Schiff Bases: Investigating Their Structure, Solution Speciation, and Anticancer Potential” (Inorganic Chemistry, 2023).
Entries after “also recorded” stand apart in the source; their conditions may differ. Read-outs that look alike come from different tables or passages of the source.

Key:
[1] = Proton dissociation constants by UV–vis spectrophotometric titrations; type: physicochemical; conditions: water with 0.10 M KCl, I = 0.1 M KCl, t = 25.0 °C
Procedure: (§1) The UV–vis titrations were performed with a 0.10 M carbonate-free KOH solution using a Metrohm 665 Dosimat buret and an Orion 710A pH-meter equipped with a Metrohm combined electrode (type 6.0234.100). […] The average water ionization constant (pKw) is 13.76 ± 0.05. The path length was 1 cm, and the temperature was 25.0 ± 0.1 °C. An ionic strength of 0.10 M KCl was used to keep the activity coefficients constant. The samples were deoxygenated by bubbling argon through the system for 10 min. Spectrophotometric titrations were carried out using an Agilent Cary 8454 diode array spectrophotometer (Santa Clara, CA) in water on samples containing the ligands at 60 μM, in the pH range from 1.5 to 11.5 in the absence or in the presence of 1, 0.5, or 0.25 equiv of Cu(II) and Zn(II) ions, using 10.00 mL of sample volumes. Proton dissociation constants (Ka) of the ligand precursors, as well as stoichiometry and overall stability constants (β) of the metal complexes, were calculated by the computer program PSEQUAD.[20]

[2] = Overall stability (formation) constants of Cu(II) complexes by UV–vis spectrophotometric titrations; type: physicochemical; conditions: I = 0.1 M KCl, t = 25.0 °C; for log β (CuL2): bis-ligand Cu(II) complex; for log β (CuL): mono-ligand Cu(II) complex
Procedure: as §1

[3] = Overall stability (formation) constants of Zn(II) complexes by UV–vis spectrophotometric titrations; type: physicochemical; conditions: I = 0.1 M KCl, t = 25.0 °C; for log β (ZnL2): bis-ligand Zn(II) complex; for log β (ZnL): mono-ligand Zn(II) complex
Procedure: as §1

[4] = Distribution coefficient, shake-flask n-octanol/buffered aqueous solution pH 7.40; type: physicochemical; conditions: n-octanol/water partitioning, pH 7.40, 25 °C; for logD at 3 h: n-octanol/buffered aqueous solution, pH 7.4, read-out: log D7.4
Procedure: The distribution coefficients (D7.4) of the compounds were determined by the shake-flask method in n-octanol/buffered aqueous solution at pH 7.40 (25.0 ± 0.2 °C). The ligand precursors and the complexes were dissolved in 10 mM HEPES presaturated with n-octanol. The aqueous solution and n-octanol (1:1 ratio) were gently mixed with a 360° vertical rotation (∼20 rpm) for 3 h; then, the samples were centrifuged at 3000 rpm for 5 min. Two phases were separated, and their UV–vis spectra were recorded. The D7.4 value was calculated as follows [drawing 1] 1

[5] = test system: Human malignant melanoma A375 cells; assay: Antiproliferative activity in A375 cells, CellTiter-Glo 3D luminescent method; type: cell-based
Procedure: (§2) Cell culture media and antibiotics were obtained from Gibco (Thermo Fisher Scientific). Human malignant melanoma A375 cells (ATCC CRL-1619TM) and human keratinocytes HaCaT (CLS 300493) were cultured in DMEM-Glutamax supplemented with 10% fetal bovine serum (FBS), hereafter designated as complete medium. For human keratinocytes, 100 IU/mL of penicillin and 100 μg/mL of streptomycin (Gibco, Thermo Fisher Scientific) were also used. The cell lines were kept at 37 °C with a 5% CO2 atmosphere. The maintenance of cell cultures was performed every 2–3 days until the cells reached a confluency of about 80%.
The CellTiter-Glo 3D kit (Promega) was used to assess the viability of the A375 cells in the presence or absence (negative control) of increasing concentrations of the free ligands and complexes. The kit detects adenosine triphosphate, which is proportional to the number of viable cells, therefore allowing the assessment of cell proliferation. First, A375 cells were plated at a concentration of 5 × 10^4 cells/mL in 96-well plates (200 μL/well) and cultured for 24 h in the culture conditions described above. Then, cells were incubated with the free ligands (1–100 μM), Zn(II) complexes (1 to 80 μM), and Cu(II) complexes (1–20 μM) in 96-well plates. After an incubation period of 48 h, 100 μL of each well was discarded. Then, 40 μL of CellTiter-Glo 3D reagent was added into each well and the contents were mixed vigorously for 15 min to induce cell lysis at room temperature. Finally, the luminescence was measured using a Varioskan Lux multimode plate reader (Thermo Scientific). Values presented are mean ± standard deviation (SD) of two independent biological experiments with 4 technical replicates per condition.
(§3) GraphPad Prism8 (GraphPad Software, San Diego, CA) was used to analyze cell proliferation, and values were plotted and fit a standard log dose–response curve to generate IC50 values.

[6] = test system: human keratinocytes HaCaT; assay: MTT assay in nontumorigenic HaCaT cells; type: cell-based; conditions: for IC50: HaCaT, 48 h incubation, MTT colorimetric method; for Selectivity index (SI): IC50 HaCaT/IC50 A375
Procedure: as §2
The MTT assay was used to assess cell viability in the presence of increasing concentrations of selected compounds. Briefly, HaCaT cells were plated at a concentration of 5 × 10^4 cells/mL in 96-well plates (200 μL/well) and cultured for 24 h in the culture conditions described above. Then, cells were incubated with free ligands and metal complexes at concentrations ranging from 5 to 30 μM. Negative controls were cells maintained in complete culture medium. The culture medium was discarded after 48 h, cells were washed with PBS (2 times), and then 50 μL of MTT at 0.5 mg/mL in incomplete medium was added to all wells. After 2–3 h of incubation period at 37 °C, 100 μL of DMSO was added to each well to solubilize the formazan crystals, and absorbance was measured at 570 nm using a microplate reader Model 680 (Bio-Rad, CA). Two independent experiments were carried out, with six replicates per condition.
as §3

[7] = Thermodynamic solubility in water at pH 7.40; type: physicochemical; conditions: pH 7.40, 10 mM HEPES, 37 °C, 24 h incubation
Procedure: Thermodynamic solubility (S) of the free ligands and complexes was determined for the saturated solutions in water at pH 7.40 in 10 mM HEPES at 37.0 ± 0.2 °C. The concentration of the compounds was determined by UV–vis spectrophotometry using stock solutions with known concentrations dissolved in 100% DMSO, 50%, and 25% (v/v) DMSO/buffered aqueous solutions for the calibration.

A375 cells = assay: Guava ViaCount assay by flow cytometry; type: cell-based, human; conditions: A375, 48 h; Zn(L2)2 at 15 μM, Cu2(L2)4 at 12 μM
Procedure: For the Guava ViaCount assay, A375 cells were plated at a concentration of 8 × 10^4 cells/mL in 24-well plates (1 mL/well) and cultured for 24 h in the culture conditions described above.[23] Cells were then incubated with Zn(L2)2 and Cu2(L2)4 at concentrations of 15 and 12 μM, respectively. The positive control, dacarbazine (DTIC), was tested at 70 μM. Cells in the presence of complete culture medium constituted the negative control group. After an incubation period of 48 h, cell culture supernatants were collected, and adherent cells were detached using TrypLEExpress (Invitrogen). Detached cells were then added to supernatants, and the wells were washed using PBS with 2% FBS to recover any remaining cells. The recovered suspension was centrifuged for 5 min at 700 g. The supernatants were discarded, and cells were suspended in PBS with 2% FBS. Then, on a 96-well plate, 20 μL of cell suspension was incubated with 180 μL of Guava ViaCount reagent (Merck Millipore, Darmstadt, Germany) for 5 min at r.t. Using a Guava EasyCyte 5HT Flow cytometer (Guava Technologies, Inc., Hayward, CA), data were collected and analyzed with the ViaCount software module with an acquisition of 10,000 events per sample. GraphPad Prism8 was used to analyze cell proliferation (GraphPad Software, San Diego, CA). One experiment was carried out, with three replicates per condition.

[8] = Stability in aqueous HEPES buffer (5% DMSO) by UV–vis; type: physicochemical; conditions: HEPES 10 mM pH 7.4 with 5% (v/v) DMSO; 100–135 μM; 24 h
Procedure: Stock solutions of each complex were freshly prepared in DMSO and diluted with HEPES buffer (10 mM, pH 7.4), ensuring that the organic solvent content was less than 5% (v/v). The samples were monitored by UV–vis absorption spectrophotometry for 6 consecutive hours, and a final measurement was done after 24 h.

[9] = molecular target: T1, bovine serum albumin (BSA) (Bos taurus, UniProt P02769); assay: Fluorescence quenching titration of BSA; type: binding
T1 construct: bovine serum albumin (BSA) stock solutions of lyophilized protein
T1 sequence (P02769 25-607): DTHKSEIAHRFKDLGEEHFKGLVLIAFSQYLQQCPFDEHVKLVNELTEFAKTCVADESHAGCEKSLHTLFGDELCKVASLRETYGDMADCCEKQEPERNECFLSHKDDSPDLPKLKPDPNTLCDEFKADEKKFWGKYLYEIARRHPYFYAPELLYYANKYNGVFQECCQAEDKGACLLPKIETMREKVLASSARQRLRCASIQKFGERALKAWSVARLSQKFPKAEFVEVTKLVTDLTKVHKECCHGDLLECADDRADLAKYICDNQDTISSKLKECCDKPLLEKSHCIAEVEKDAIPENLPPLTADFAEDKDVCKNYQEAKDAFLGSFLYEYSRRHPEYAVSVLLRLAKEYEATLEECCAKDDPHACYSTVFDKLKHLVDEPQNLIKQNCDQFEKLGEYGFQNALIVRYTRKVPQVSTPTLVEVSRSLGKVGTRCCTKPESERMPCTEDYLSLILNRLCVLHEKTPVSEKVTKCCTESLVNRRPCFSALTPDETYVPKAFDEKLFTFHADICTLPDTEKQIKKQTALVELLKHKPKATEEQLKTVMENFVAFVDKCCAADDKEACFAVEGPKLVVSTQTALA
Procedure: The steady-state fluorescence emission spectra of a solution of 0.5–1.0 μM BSA (in HEPES buffer) were recorded between 310 and 500 nm with λexc = 295 nm after additions of the complexes’ solutions directly to the cuvette (optical path of 1.0 cm). The UV–vis spectrum of each sample was used to make corrections and minimize the inner filter and reabsorption interferences.[22] Solutions with the same concentration of complex and no BSA were recorded and used as blank spectra.
Data were analyzed by fitting a second-order equation, which accounts for both static and dynamic quenching [drawing 2] 2 where I0 and I are the fluorescence intensities in the absence and presence of quencher (Q), and KS and KD are the static and dynamic quenching constants, respectively.
The Stern–Volmer equation was used for low quencher concentrations to determine the Stern–Volmer quenching constant (KSV), a measure of the quenching strength [drawing 3] 3

[10] = Stability by 1H NMR in DMSO-d6 or 30% DMSO-d6/H2O; type: physicochemical; conditions: 1 mM
Procedure: A Bruker Avance III HD Ascend 500 Plus instrument (Billerica, MA) was used for NMR spectroscopic titrations and time-dependent studies applying a WATERGATE water suppression pulse scheme in the presence of 10% (v/v) D2O/H2O, and the sodium trimethylsilylpropanesulfonate (DSS) standard was added to samples as the internal reference. ^1H NMR titrations were carried out for the ligand precursors in the presence of 0.1 M KCl. For free ligands and complexes’ stability measurements, ^1H NMR spectra were recorded in DMSO-d6 or 30% (v/v) DMSO-d6/H2O.

melanoma cell line A375 = test system: melanoma cell line A375; set-up: method as in doi:10.1016/j.phytol.2021.07.008; conditions: A375, MTT method; cited from earlier work
[11] = quinolinium nitrogen, read-out: pKa (NqH+)
[12] = Homo sapiens, A-375, A375, 48 h incubation

pKa ([1]; phenol OH, read-out: pKa (OH))	pKa [1, 11]	log β (CuL2) [2]	log β (CuL) [2]	log β (ZnL2) [3]	log β (ZnL) [3]	logD at 3 h [4]	IC50 [5, 12]	log D7.4 [4]	Thermodynamic solubility S7.4 [7]	IC50 ([5]; A375, 48 h incubation)	stability in aqueous media [8]	SMILES	IC50 ([6]; Homo sapiens)	IC50 [6]	Selectivity index (SI) [6]	further results
8.77 ± 0.03	2.8 ± 0.03	15.60 ± 0.02	8.36 ± 0.01	14.42 ± 0.01	6.90 ± 0.03	0.63	15.2 ± 0.2 µM	–	–	–	–	Oc1cccc2ccc(/C=N/CCN3CCCCC3)nc12 [L1]	> 30 µM	–	–	–
–	–	–	–	–	–	–	–	+0.86 ± 0.09	1674 µM	10.3 ± 1.6 µM	did not show signs of decomposition	[O-]c1cccc2ccc(/C=N/CCN3CCOCC3)nc12.[O-]c1cccc2ccc(/C=N/CCN3CCOCC3)nc12.[Zn+2] [Zn(L2)2]	–	24.4 ± 0.6 µM	2.4	percentage of dead and apoptotic cells (A375 cells): 10%
8.84 ± 0.03	2.83 ± 0.03	15.77 ± 0.03	7.98 ± 0.02	14.32 ± 0.02	6.86 ± 0.04	0.64	15.9 ± 0.1 µM	–	–	–	–	Oc1cccc2ccc(/C=N/CCN3CCOCC3)nc12 [L2]	> 30 µM	–	–	–
–	–	–	–	–	–	–	–	>1.5	1821 µM	6.7 ± 0.2 µM	–	[Cu+2].[O-]c1cccc2ccc(/C=N/CCCN3CCOCC3)nc12.[O-]c1cccc2ccc(/C=N/CCCN3CCOCC3)nc12 [Cu(L3)2]	–	8.1 ± 0.2 µM	1.2	Stern–Volmer quenching constant KSV ([9]; fit at low quencher concentrations, HEPES pH 7.4): (2.20 ± 0.07) × 10^5 M^–1; % quenching ([9]; molar ratio complex:BSA = 10, λexc = 295 nm): 48%
–	–	–	–	–	–	–	–	>1.5	694 µM	9.1 ± 1.5 µM	did not show signs of decomposition	[O-]c1cccc2ccc(/C=N/CCN3CCCCC3)nc12.[O-]c1cccc2ccc(/C=N/CCN3CCCCC3)nc12.[Zn+2] [Zn(L1)2]	–	22.3 ± 0.7 µM	2.5	period the 1H NMR spectra remained unchanged [10]: 8 days
–	–	–	–	–	–	–	–	–	–	–	–	N.N.[Cl][Pt][Cl] [Cisplatin]	–	–	–	IC50 (melanoma cell line A375): 10.9 ± 1.3 µM
8.78 ± 0.03	2.77 ± 0.03	15.57 ± 0.01	8.34 ± 0.01	13.68 ± 0.04	6.87 ± 0.01	0.76	25.8 ± 0.3 µM	–	–	–	–	Oc1cccc2ccc(/C=N/CCCN3CCOCC3)nc12 [L3]	> 30 µM	–	–	–

SMILES	pKa ([1]; phenol OH, read-out: pKa (OH))	pKa [1, 11]	log β (CuL2) [2]	log β (CuL) [2]	log β (ZnL2) [3]	log β (ZnL) [3]	logD at 3 h [4]	IC50 [5, 12]	log D7.4 [4]	Thermodynamic solubility S7.4 [7]	IC50 ([5]; A375, 48 h incubation)	stability in aqueous media [8]	IC50 ([6]; Homo sapiens)	IC50 [6]	Selectivity index (SI) [6]	further results
[O-]c1cccc2ccc(/C=N/CCCN3CCOCC3)nc12.[O-]c1cccc2ccc(/C=N/CCCN3CCOCC3)nc12.[Zn+2] [Zn(L3)2]	–	–	–	–	–	–	–	–	>1.5	87 µM	9.3 ± 1.1 µM	suggests hydrolysis; also recorded: significant hydrolysis	–	26.3 ± 0.7 µM	2.8	–
